Molecular target: T1, MCR-1 (Homo sapiens, UniProt Q01726)
T1 construct: expressed in transfected cells; host or cells: HEK 293
Assay: Melanocortin receptor binding assay, competition with 125I-HP 467, HEK 293 cells expressing hMCR-1
Settings: displacement of 125I-HP 467 at 10 μM isoquinoline compound
Method: All cell culture media and reagents were obtained from GibcoBRL (Gaithersburg Md.), except for COSMIC CALF SERUM (HyClone; Logan Utah).
Cells were suspended in PBS, 10% COSMIC CALF SERUM and 1 mM CaCl2. Cell suspensions were prepared at a density of 2×10^4 cells/ml for HEK 293 cells expressing hMCR-3, hMCR-4 or hMCR-5, and 1×10^5 cells/ml for HEK 293 cells expressing hMCR-1. Suspensions were placed in a water bath and allowed to warm to 37° C. for 1 hr.
Binding assays were performed in a total volume of 250 μl for HEK 293 cells. […] To each tube was added 4×10^3 HEK 293 cells expressing hMCR-3, hMCR-4 or hMCR-5, or 2×10^4 cells expressing hMCR-1. Assays were incubated for 2.5 hr at 37° C.
GF/B filter plates were prepared by soaking for at least one hour in 5 mg/ml BSA and 10 mM CaCl2. Assays were filtered using a Brandel 96-well cell harvester (Brandel Inc.; Gaithersburg, Md.). The filters were washed four times with cold 50 mM Tris, pH 7.4, the filter plates were dehydrated for 2 hr and 35 μl of MICROSCINT was added to each well. Filter plates were counted using a Packard Topcount (Packard Instrument Co.) and data analyzed using GraphPad PRISM v2.0 (GraphPad Software Inc.; San Diego Calif.) and Microsoft EXCEL v5.0a (Microsoft Corp.; Redmond Wash.).
To assay isoquinoline compounds, binding assays were performed in duplicate in a 96 well format. […] A 0.2 ml aliquot of suspended cells was added to each well to give the cell numbers indicate above, and the cells were incubated at 37° C. for 2.5 hr. Cells were harvested on GF/B filter plates as described above and counted.

T1 sequence (Q01726 whole entry): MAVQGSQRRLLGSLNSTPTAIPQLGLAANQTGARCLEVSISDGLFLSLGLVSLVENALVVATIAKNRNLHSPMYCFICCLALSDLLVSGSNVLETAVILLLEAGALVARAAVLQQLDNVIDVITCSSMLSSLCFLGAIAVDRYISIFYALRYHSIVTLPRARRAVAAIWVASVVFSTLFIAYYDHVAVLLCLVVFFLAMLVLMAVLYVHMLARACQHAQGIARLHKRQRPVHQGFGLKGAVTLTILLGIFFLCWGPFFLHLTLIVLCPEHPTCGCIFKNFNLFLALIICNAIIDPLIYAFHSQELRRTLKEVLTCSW

% Disp. MC-1 10 μM (first of duplicate)	% Disp. MC-1 10 μM (second of duplicate)	Structure (SMILES)
59.1%	58.4%	CNC(CN)CN1Cc2ccccc2C(CNC2CCCCC2)C1c1cccc(C(F)(F)F)c1 (centres unmarked) [TRG 2405-125]
50.6%	60.3%	CNC(CN)CN1Cc2ccccc2C(CNC2CCCCC2)C1c1cccc(Br)c1 (centres unmarked) [TRG 2405-127]
39.8%	39.6%	CNC(CN)CN1Cc2ccccc2C(CNC2CCCCC2)C1c1cccc(CN)c1 (centres unmarked) [TRG 2405-129]
48.9%	43.3%	CNC(CN)CN1Cc2ccccc2C(CNC2CCCCC2)C1c1ccc(OC)c(F)c1 (centres unmarked) [TRG 2405-130]
39.2%	55.7%	CNC(CN)CN1Cc2ccccc2C(CNC2CCCCC2)C1c1cccc(F)c1 (centres unmarked) [TRG 2405-131]
51.6%	51.7%	CNC(CN)CN1Cc2ccccc2C(CNC2CCCCC2)C1c1ccoc1 (centres unmarked) [TRG 2405-132]
43.9%	39.7%	CNC(CN)CN1Cc2ccccc2C(CNC2CCCCC2)C1c1cccc(OC)c1 (centres unmarked) [TRG 2405-135]
40.6%	46%	CNC(CN)CN1Cc2ccccc2C(CNC2CCCCC2)C1c1cccc(C)c1 (centres unmarked) [TRG 2405-137]
40.3%	45.5%	CNC(CN)CN1Cc2ccccc2C(CNC2CCCCC2)C1c1cccc([N+](=O)[O-])c1 (centres unmarked) [TRG 2405-139]
67.6%	67.8%	CNC(CN)CN1Cc2ccccc2C(CNC2CCCCC2)C1c1cccc(Oc2ccccc2)c1 (centres unmarked) [TRG 2405-140]
15%	16.2%	CNC(CN)CN1Cc2ccccc2C(CNC2CCCCC2)C1c1cccnc1 (centres unmarked) [TRG 2405-141]
48.5%	45.1%	CNC(CN)CN1Cc2ccccc2C(CNC2CCCCC2)C1c1cnc2ccccc2c1 (centres unmarked) [TRG 2405-142]
29.6%	41.7%	CNC(CN)CN1Cc2ccccc2C(CNC2CCCCC2)C1c1ccc(OCCCN(C)C)cc1 (centres unmarked) [TRG 2405-144]
41.2%	49.7%	CNC(CN)CN1Cc2ccccc2C(CNC2CCCCC2)C1c1ccc(N(C)C)cc1 (centres unmarked) [TRG 2405-145]
31.6%	38.9%	CNC(CN)CN1Cc2ccccc2C(CNC2CCCCC2)C1c1ccc(SC)cc1 (centres unmarked) [TRG 2405-147]
30.1%	52.3%	CCNc1ccc(C2C(CNC3CCCCC3)c3ccccc3CN2CC(CN)NC)cc1 (centres unmarked) [TRG 2405-149]
37.6%	54.7%	CNC(CN)CN1Cc2ccccc2C(CNC2CCCCC2)C1c1ccc(OC)cc1 (centres unmarked) [TRG 2405-150]
61.5%	57.6%	CNC(CN)CN1Cc2ccccc2C(CNC2CCCCC2)C1c1ccc(-c2ccccc2)cc1 (centres unmarked) [TRG 2405-151]
43.1%	54.8%	CNC(CN)CN1Cc2ccccc2C(CNC2CCCCC2)C1c1ccc(CN)cc1 (centres unmarked) [TRG 2405-154]
52.3%	55.6%	CNC(CN)CN1Cc2ccccc2C(CNC2CCCCC2)C1c1ccc(F)cc1 (centres unmarked) [TRG 2405-155]
56.4%	56.1%	CNC(CN)CN1Cc2ccccc2C(CNC2CCCCC2)C1c1ccc(C(C)C)cc1 (centres unmarked) [TRG 2405-157]
45.6%	45.8%	CNC(CN)CN1Cc2ccccc2C(CNC2CCCCC2)C1c1ccc(OC)c2ccccc12 (centres unmarked) [TRG 2405-158]
51%	53.5%	CNC(CN)CN1Cc2ccccc2C(CNC2CCCCC2)C1c1ccc(C)cc1 (centres unmarked) [TRG 2405-159]
71%	59.6%	CNC(CN)CN1Cc2ccccc2C(CNC2CCCCC2)C1c1ccc(Oc2ccccc2)cc1 (centres unmarked) [TRG 2405-162]
62.4%	58.1%	CCCOc1ccc(C2C(CNC3CCCCC3)c3ccccc3CN2CC(CN)NC)cc1 (centres unmarked) [TRG 2405-163]

Further lines, the compound ahead of its results:

Structure (SMILES)	% Disp. MC-1 10 μM (first of duplicate)	% Disp. MC-1 10 μM (second of duplicate)
CCn1c2ccccc2c2cc(C3C(CNC4CCCCC4)c4ccccc4CN3CCN)ccc21 (centres unmarked) [TRG 2405-83]	39.1%	46.9%
NCCN1Cc2ccccc2C(CNC2CCCCC2)C1c1cc2c3c(c1O)CCCN3CCC2 (centres unmarked) [TRG 2405-84]	18.2%	37.5%
CS(=O)(=O)c1ccc(C2C(CNC3CCCCC3)c3ccccc3CN2CCN)cc1 (centres unmarked) [TRG 2405-87]	21.9%	22.1%
COc1ccc(C2C(CNC3CCCCC3)c3ccccc3CN2CCN)cc1S(=O)(=O)O (centres unmarked) [TRG 2405-88]	5.5%	0%
NCCN1Cc2ccccc2C(CNC2CCCCC2)C1c1ccc(Br)o1 (centres unmarked) [TRG 2405-89]	21.5%	31.2%
NCCN1Cc2ccccc2C(CNC2CCCCC2)C1c1nccs1 (centres unmarked) [TRG 2405-90]	48.4%	45.9%
CNC(CN)CN1Cc2ccccc2C(CNC2CCCCC2)C1c1ccccc1 (centres unmarked) [TRG 2405-91]	35.2%	43.9%
CNC(CN)CN1Cc2ccccc2C(CNC2CCCCC2)C1c1ccccc1O (centres unmarked) [TRG 2405-92]	57.6%	49.9%
CNC(CN)CN1Cc2ccccc2C(CNC2CCCCC2)C1c1ccc2c(c1)OCCO2 (centres unmarked) [TRG 2405-93]	43.2%	56.2%
CNC(CN)CN1Cc2ccccc2C(CNC2CCCCC2)C1c1cccc2ccccc12 (centres unmarked) [TRG 2405-95]	45.6%	51.1%
CNC(CN)CN1Cc2ccccc2C(CNC2CCCCC2)C1c1ccc(F)c(F)c1F (centres unmarked) [TRG 2405-96]	44.5%	54.4%
CNC(CN)CN1Cc2ccccc2C(CNC2CCCCC2)C1c1cc(Cl)cc(Cl)c1Cl (centres unmarked) [TRG 2405-97]	58.2%	61.1%
CNC(CN)CN1Cc2ccccc2C(CNC2CCCCC2)C1c1cccc2c1OCO2 (centres unmarked) [TRG 2405-98]	20.1%	48.3%
CNC(CN)CN1Cc2ccccc2C(CNC2CCCCC2)C1c1cccc(F)c1F (centres unmarked) [TRG 2405-99]	34.7%	54.2%
CNC(CN)CN1Cc2ccccc2C(CNC2CCCCC2)C1c1c(F)cccc1F (centres unmarked) [TRG 2405-101]	34%	45.3%
CNC(CN)CN1Cc2ccccc2C(CNC2CCCCC2)C1c1ccccc1Br (centres unmarked) [TRG 2405-102]	44.7%	50.4%
CNC(CN)CN1Cc2ccccc2C(CNC2CCCCC2)C1c1c(F)cccc1Cl (centres unmarked) [TRG 2405-104]	32.8%	33.3%
CNC(CN)CN1Cc2ccccc2C(CNC2CCCCC2)C1c1ccccc1CN (centres unmarked) [TRG 2405-105]	20.2%	49.9%
CNC(CN)CN1Cc2ccccc2C(CNC2CCCCC2)C1c1ccccc1F (centres unmarked) [TRG 2405-106]	40.7%	44.7%
CNC(CN)CN1Cc2ccccc2C(CNC2CCCCC2)C1c1ccco1 (centres unmarked) [TRG 2405-107]	43.1%	52.1%
CNC(CN)CN1Cc2ccccc2C(CNC2CCCCC2)C1c1ncc[nH]1 (centres unmarked) [TRG 2405-108]	46%	46.6%
CNC(CN)CN1Cc2ccccc2C(CNC2CCCCC2)C1c1ccccc1OC (centres unmarked) [TRG 2405-109]	34.7%	44.7%
CNC(CN)CN1Cc2ccccc2C(CNC2CCCCC2)C1c1ccc2ccccc2c1 (centres unmarked) [TRG 2405-110]	59.5%	61.6%
CNC(CN)CN1Cc2ccccc2C(CNC2CCCCC2)C1c1cccs1 (centres unmarked) [TRG 2405-113]	40%	58.5%
CNC(CN)CN1Cc2ccccc2C(CNC2CCCCC2)C1c1ccc(Cl)c(Cl)c1 (centres unmarked) [TRG 2405-116]	62.3%	63%
CNC(CN)CN1Cc2ccccc2C(CNC2CCCCC2)C1c1ccc(F)c(F)c1 (centres unmarked) [TRG 2405-117]	40.9%	55.7%
CNC(CN)CN1Cc2ccccc2C(CNC2CCCCC2)C1c1cc(O)cc(O)c1 (centres unmarked) [TRG 2405-119]	25.9%	39.8%
CNC(CN)CN1Cc2ccccc2C(CNC2CCCCC2)C1c1cc(OC)cc(OC)c1 (centres unmarked) [TRG 2405-121]	35.3%	38.7%
CNC(CN)CN1Cc2ccccc2C(CNC2CCCCC2)C1c1cc(C)c(O)c(C)c1 (centres unmarked) [TRG 2405-122]	17.6%	40.7%
CNC(CN)CN1Cc2ccccc2C(CNC2CCCCC2)C1c1cccc(Oc2ccc(Cl)c(Cl)c2)c1 (centres unmarked) [TRG 2405-123]	47.9%	55.6%
